{"source": "patent US12180187B2", "about": "“1-phenyl-5-azinylpyrazolyl-3-oxyalkyl acids and their use for controlling unwanted plant growth” (BAYER AKTIENGESELLSCHAFT, priority 2019, dated 2024)", "key": {"[1]": {"system": "AVEFA", "test": "Pre-emergence action at 320 g/ha against AVEFA", "format": "in vivo", "details": "visual scoring after about 3 weeks vs untreated controls", "procedure,_shortened": "(§1)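 Percent herbicidal activity was assessed by eye roughly three weeks post-application, comparing with untreated plants. Treatment consisted of applying formulated compound in water plus 0.5% additive to covering soil at 600 l/ha before emergence.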"}, "[2]": {"system": "VERPE", "test": "Pre-emergence action against VERPE, 1280 g/ha", "format": "in vivo, Veronica persica", "details": "scored visually after about 3 weeks vs untreated controls (100% = plants have died)", "procedure,_shortened": "(§2)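 Visual percent-effect ratings (0% = like control, 100% = plants dead) were taken about 3 weeks after pre-emergence soil-surface application of WP/EC aqueous formulations with 0.5% additive, 600 L water/ha. Seeds were sown in sandy loam and grown in the greenhouse.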"}, "[3]": {"system": "MATIN", "test": "Pre-emergence action against MATIN, 1280 g/ha", "format": "in vivo, Tripleurospermum inodorum (Matricaria inodora)", "details": "scored visually after about 3 weeks vs untreated controls (100% = plants have died)", "procedure,_shortened": "as §2"}, "[4]": {"system": "SETVI", "test": "Pre-emergence action against SETVI, 1280 g/ha", "format": "in vivo, Setaria viridis", "details": "visual scoring after about 3 weeks vs untreated controls, 100% = plants have died, 0% = like control plants", "procedure,_shortened": "as §2"}, "[5]": {"system": "ABUTH", "test": "Post-emergence action against ABUTH, 1.28 kg/ha", "format": "in vivo, Abutilon theophrasti", "details": "dosage 1280 g/ha, visual rating about 3 weeks after treatment vs untreated controls (100% = plants died)", "procedure,_shortened": "(§3)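 Spray at one-leaf stage with WP/EC + 0.5% additive, 600 L water/ha. Greenhouse, optimum conditions, ~3 wk. Visual % control vs untreated; 0 = no effect, 100 = dead.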"}, "[6]": {"system": "ECHCG", "test": "Post-emergence action at 320 g/ha against ECHCG", "format": "in vivo, Echinochloa crus-galli", "details": "dosage 320 g/ha, visual rating about 3 weeks after treatment vs untreated controls (100% = plants died)", "description": "(§4) Accordingly, the compounds of the invention have good herbicidal action against a broad spectrum of weed grasses and broad-leaved weeds and are therefore suitable for controlling unwanted vegetation by the post-emergence method. • b) Seeds of monocotyledonous and dicotyledonous weeds and crop plants are placed in sandy loam in plastic or organic planting pots, covered with soil and cultivated in a greenhouse under controlled growth conditions. 2 to 3 weeks after sowing, the test plants are treated at the one-leaf stage. The compounds of the invention, formulated in the form of wettable powders (WP) or as emulsion concentrates (EC), are then sprayed onto the green parts of the plants as aqueous suspension or emulsion with addition of 0.5% additive at a water application rate of 600 l/ha (converted). After the test plants have been kept in the greenhouse under optimum growth conditions for about 3 weeks, the activity of the preparations is rated visually in comparison to untreated controls. For example, 100% activity=the plants have died, 0% activity=like control plants. Tables 39 to 49 below show the effects of selected compounds of the general formula (I) according to Tables 1 and 2 on various harmful plants and at an application rate corresponding to 320 g/ha, which were obtained by the experimental procedure mentioned above."}, "[7]": {"system": "AMARE", "test": "Pre-emergence action at 320 g/ha against AMARE", "format": "in vivo, Amaranthus retroflexus", "details": "visual scoring after about 3 weeks vs untreated controls", "procedure,_shortened": "as §1"}, "[8]": {"system": "MATIN", "test": "Pre-emergence action at 320 g/ha against MATIN", "format": "in vivo, Tripleurospermum inodorum (Matricaria inodora)", "details": "visual scoring after about 3 weeks vs untreated controls", "procedure,_shortened": "as §1"}, "[9]": {"system": "VIOTR", "test": "Pre-emergence action at 320 g/ha against VIOTR", "format": "in vivo, Viola tricolor", "details": "dosage 320 g/ha", "procedure,_shortened": "as §1"}, "[10]": {"system": "DIGSA", "test": "Pre-emergence action at 320 g/ha against DIGSA", "format": "in vivo, Digitaria sanguinalis", "details": "visual scoring after about 3 weeks vs untreated controls", "procedure,_shortened": "as §1"}, "[11]": {"system": "ALOMY", "test": "Post-emergence action against ALOMY, 320 g/ha", "format": "in vivo, Alopecurus myosuroides", "details": "dosage 320 g/ha, visual rating about 3 weeks after treatment vs untreated controls (100% = plants died)", "description": "as §4"}, "[12]": {"system": "VERPE", "test": "Pre-emergence action at 320 g/ha against VERPE", "format": "in vivo, Veronica persica", "details": "visual scoring after about 3 weeks vs untreated controls", "procedure,_shortened": "as §1"}, "[13]": {"system": "LOLRI", "test": "Pre-emergence action against LOLRI, 1280 g/ha", "format": "in vivo, Lolium rigidum", "details": "visual scoring after about 3 weeks vs untreated controls, 100% = plants have died, 0% = like control plants", "procedure,_shortened": "as §2"}, "[14]": {"system": "VERPE", "test": "Post-emergence action against VERPE, 1.28 kg/ha", "format": "in vivo, Veronica persica", "details": "dosage 1280 g/ha, visual rating about 3 weeks after treatment vs untreated controls (100% = plants died)", "procedure,_shortened": "as §3"}, "[15]": {"system": "DIGSA", "test": "Post-emergence action against DIGSA, 1.28 kg/ha", "format": "in vivo, Digitaria sanguinalis", "details": "dosage 1280 g/ha, visual rating about 3 weeks after treatment vs untreated controls", "procedure,_shortened": "as §3"}, "[16]": {"system": "POAAN", "test": "Post-emergence action against POAAN, 1.28 kg/ha", "format": "in vivo, Poa annua", "details": "dosage 1280 g/ha, visual rating about 3 weeks after treatment vs untreated controls", "procedure,_shortened": "as §3"}, "[17]": {"system": "STEME", "test": "Pre-emergence action against STEME, 1280 g/ha", "format": "in vivo, Stellaria media", "details": "scored visually after about 3 weeks vs untreated controls (100% = plants have died)", "procedure,_shortened": "as §2"}, "[18]": {"system": "AMARE", "test": "Post-emergence action against AMARE, 1.28 kg/ha", "format": "in vivo, Amaranthus retroflexus", "details": "dosage 1280 g/ha, visual rating about 3 weeks after treatment vs untreated controls (100% = plants died)", "procedure,_shortened": "as §3"}, "[19]": {"system": "POAAN", "test": "Pre-emergence action against POAAN, 1280 g/ha", "format": "in vivo, Poa annua", "details": "visual scoring after about 3 weeks vs untreated controls, 100% = plants have died, 0% = like control plants", "procedure,_shortened": "as §2"}, "[20]": {"system": "DIGSA", "test": "Pre-emergence action against DIGSA, 1280 g/ha", "format": "in vivo, Digitaria sanguinalis", "details": "visual scoring after about 3 weeks vs untreated controls, 100% = plants have died, 0% = like control plants", "procedure,_shortened": "as §2"}, "[21]": {"system": "MATIN", "test": "Post-emergence action against MATIN, 1.28 kg/ha", "format": "in vivo, Tripleurospermum inodorum (Matricaria inodora)", "details": "dosage 1280 g/ha, visual rating about 3 weeks after treatment vs untreated controls (100% = plants died)", "procedure,_shortened": "as §3"}, "[22]": {"system": "LOLRI", "test": "Pre-emergence action at 320 g/ha against LOLRI", "format": "in vivo, Lolium rigidum", "details": "visual scoring after about 3 weeks vs untreated controls", "procedure,_shortened": "as §1"}, "[23]": {"system": "ALOMY", "test": "Post-emergence action against ALOMY, 1.28 kg/ha", "format": "in vivo, Alopecurus myosuroides", "details": "dosage 1280 g/ha, visual rating about 3 weeks after treatment vs untreated controls", "procedure,_shortened": "as §3"}, "[24]": {"system": "SETVI", "test": "Post-emergence action at 320 g/ha against SETVI", "format": "in vivo, Setaria viridis", "details": "visual rating about 3 weeks after treatment vs untreated controls", "description": "as §4"}, "[25]": {"system": "POLCO", "test": "Pre-emergence action at 320 g/ha against POLCO", "format": "in vivo, Fallopia convolvulus (Polygonum convolvulus)", "details": "visual scoring after about 3 weeks vs untreated controls", "procedure,_shortened": "as §1"}, "[26]": {"system": "ALOMY", "test": "Pre-emergence action at 320 g/ha against ALOMY", "format": "in vivo, Alopecurus myosuroides", "details": "scored visually after about 3 weeks vs untreated controls (100% = plants have died)", "procedure,_shortened": "as §1"}, "[27]": {"system": "LOLRI", "test": "Post-emergence action against LOLRI, 1.28 kg/ha", "format": "in vivo, Lolium rigidum", "details": "dosage 1280 g/ha, visual rating about 3 weeks after treatment vs untreated controls", "procedure,_shortened": "as §3"}, "[28]": {"system": "ECHCG", "test": "Post-emergence action against ECHCG, 1.28 kg/ha", "format": "in vivo, Echinochloa crus-galli", "details": "dosage 1280 g/ha, visual rating about 3 weeks after treatment vs untreated controls", "procedure,_shortened": "as §3"}, "[29]": {"system": "SETVI", "test": "Post-emergence action against SETVI, 1.28 kg/ha", "format": "in vivo, Setaria viridis", "details": "dosage 1280 g/ha, visual rating about 3 weeks after treatment vs untreated controls", "procedure,_shortened": "as §3"}, "[30]": {"system": "AMARE", "test": "Pre-emergence action against AMARE, 1280 g/ha", "format": "in vivo, Amaranthus retroflexus", "details": "scored visually after about 3 weeks vs untreated controls (100% = plants have died)", "procedure,_shortened": "as §2"}, "[31]": {"system": "ECHCG", "test": "Pre-emergence action against ECHCG, 1280 g/ha", "format": "in vivo, Echinochloa crus-galli", "details": "visual scoring after about 3 weeks vs untreated controls, 100% = plants have died, 0% = like control plants", "procedure,_shortened": "as §2"}, "[32]": {"system": "ALOMY", "test": "Pre-emergence action against ALOMY, 1280 g/ha", "format": "in vivo, Alopecurus myosuroides", "details": "visual scoring after about 3 weeks vs untreated controls, 100% = plants have died, 0% = like control plants", "procedure,_shortened": "as §2"}}}
{"smiles": "CCOC(=O)COc1nn(-c2ccccc2C)c(-c2ccc(F)nc2)c1Br", "note": "[VII-056-a]", "values": [{"measurement": "Pre-emergence action against AVEFA in %", "setting": "[1]", "result": 90, "unit": "%"}, {"measurement": "Pre-emergence action against VERPE", "setting": "[2]", "result": 100, "unit": "%"}, {"measurement": "Pre-emergence action against MATIN", "setting": "[3]", "result": 100, "unit": "%"}, {"measurement": "Pre-emergence action against SETVI", "setting": "[4]", "result": 100, "unit": "%"}, {"measurement": "Post-emergence action against ABUTH", "setting": "[5]", "result": 90, "unit": "%"}, {"measurement": "Post-emergence action at 320 g/ha against ECHCG in %", "setting": "[6]", "result": 80, "unit": "%"}, {"measurement": "Pre-emergence action against AMARE in %", "setting": "[7]", "result": 100, "unit": "%"}, {"measurement": "Pre-emergence action against MATIN in %", "setting": "[8]", "result": 80, "unit": "%"}, {"measurement": "Pre-emergence action against VIOTR in %", "setting": "[9]", "result": 100, "unit": "%"}, {"measurement": "Pre-emergence action against DIGSA in %", "setting": "[10]", "result": 100, "unit": "%"}, {"measurement": "Post-emergence action against ALOMY", "setting": "[11]", "result": 90, "unit": "%"}, {"measurement": "Pre-emergence action against VERPE in %", "setting": "[12]", "result": 100, "unit": "%"}, {"measurement": "Pre-emergence action against LOLRI", "setting": "[13]", "result": 90, "unit": "%"}, {"measurement": "Post-emergence action against VERPE", "setting": "[14]", "result": 100, "unit": "%"}, {"measurement": "Post-emergence action against DIGSA", "setting": "[15]", "result": 100, "unit": "%"}, {"measurement": "Post-emergence action against POAAN", "setting": "[16]", "result": 100, "unit": "%"}, {"measurement": "Pre-emergence action against STEME", "setting": "[17]", "result": 100, "unit": "%"}, {"measurement": "Post-emergence action against AMARE", "setting": "[18]", "result": 100, "unit": "%"}, {"measurement": "Pre-emergence action against POAAN", "setting": "[19]", "result": 100, "unit": "%"}, {"measurement": "Pre-emergence action against DIGSA", "setting": "[20]", "result": 100, "unit": "%"}, {"measurement": "Post-emergence action against MATIN", "setting": "[21]", "result": 100, "unit": "%"}, {"measurement": "Pre-emergence action against LOLRI in %", "setting": "[22]", "result": 90, "unit": "%"}, {"measurement": "Post-emergence action against ALOMY", "setting": "[23]", "result": 100, "unit": "%"}, {"measurement": "Post-emergence action against SETVI in %", "setting": "[24]", "result": 80, "unit": "%"}, {"measurement": "Pre-emergence action against POLCO in %", "setting": "[25]", "result": 90, "unit": "%"}, {"measurement": "Pre-emergence action at 320 g/ha against ALOMY in %", "setting": "[26]", "result": 100, "unit": "%"}, {"measurement": "Post-emergence action against LOLRI", "setting": "[27]", "result": 100, "unit": "%"}, {"measurement": "Post-emergence action against ECHCG", "setting": "[28]", "result": 100, "unit": "%"}, {"measurement": "Post-emergence action against SETVI", "setting": "[29]", "result": 100, "unit": "%"}, {"measurement": "Pre-emergence action against AMARE", "setting": "[30]", "result": 100, "unit": "%"}, {"measurement": "Pre-emergence action against ECHCG", "setting": "[31]", "result": 100, "unit": "%"}, {"measurement": "Pre-emergence action against ALOMY", "setting": "[32]", "result": 90, "unit": "%"}]}
